Results on one molecule are retold here after patent US10654855B2 (priority 2007, dated 2020).

The target of this test is AKT1 (PKBα) (Homo sapiens (Human), UniProt P31749). As to conditions: read-out: In vitro PKBα Mean IC50; AKT1/PKBα active enzyme; values marked * tested once only.

What is called IC50 is the point on the concentration scale where inhibition reaches its midpoint.

Chain of AKT1 (PKBα) (P31749 whole entry): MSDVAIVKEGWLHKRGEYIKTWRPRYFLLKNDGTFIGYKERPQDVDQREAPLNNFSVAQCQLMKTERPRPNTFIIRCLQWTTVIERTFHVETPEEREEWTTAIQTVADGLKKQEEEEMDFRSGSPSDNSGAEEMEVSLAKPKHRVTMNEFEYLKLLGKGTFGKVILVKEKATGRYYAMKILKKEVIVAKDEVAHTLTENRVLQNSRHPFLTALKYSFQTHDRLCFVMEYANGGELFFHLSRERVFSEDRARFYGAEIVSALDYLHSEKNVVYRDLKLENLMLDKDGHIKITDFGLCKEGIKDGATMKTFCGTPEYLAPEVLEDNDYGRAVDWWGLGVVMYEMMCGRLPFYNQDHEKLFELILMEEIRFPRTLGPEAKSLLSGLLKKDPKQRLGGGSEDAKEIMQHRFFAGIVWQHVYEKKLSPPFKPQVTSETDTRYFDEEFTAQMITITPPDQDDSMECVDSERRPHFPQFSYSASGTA

On to `C[C@H](NC(=O)C1(N)CCN(c2ncnc3[nH]ccc23)CC1)c1ccc(C#N)cc1` [Example 39, 4-amino-N-[(1S)-1-(4-cyanophenyl)ethyl]-1-(7H-pyrrolo[2,3-d]pyrimidin-4-yl)piperidine-4-carboxamide], for which the IC50 worked out at 50 nM.
